Test results reported in article PMC3040873, “Design, Synthesis and antiHIV activity of Novel Isatine-Sulphonamides” (Indian Journal of Pharmaceutical Sciences, 2008).

Biological target: T1, HIV-1 integrase (HIV-1 M:B_HXB2R, UniProt P04585)
T1 construct: gene gag-pol; WT integrase, cut from Gag-Pol polyprotein
Test: ELISA overall integration assay, biotin / digoxigenin labelled oligonucleotides
Format: biochemical
Conditions: overall integration reaction; 10 mM MgCl2, 5 mM DTT, 20 mM HEPES pH 7.5, 5% PEG, 15% DMSO, 37 °C, 1 h
Source text: ELISA overall integration assay, biotin / digoxigenin labelled oligonucleotides on HIV-1 integrase

Row | SMILES | IC50 ^a (μM/ml)
1 | CC(=O)N1C(=O)C(=Nc2ccc(S(=O)(=O)Nc3nc(C)cc(C)n3)cc2)c2cc(C)ccc21 [SPIII-5Me-AC, 4-(1-acetyl-5-methyl-2-oxoindolin-3-ylideneamino)-N-(4,6-dimethylpyrimidin-2-yl)benzenesulfonamide] | 53.62±11.67 μM/ml
2 | Cc1cc(C)nc(NS(=O)(=O)c2ccc(N=C3C(=O)N(C(=O)c4ccccc4)c4ccc(Br)cc43)cc2)n1 [SPIII-5Br-BZ] | > 250 μM/ml
3 | CC(=O)N1C(=O)C(=Nc2ccc(S(=O)(=O)Nc3nc(C)cc(C)n3)cc2)c2cc(Br)ccc21 [SPIII-5Br-AC] | > 250 μM/ml
